According to the Kinase Knowledgebase extract (Sharma et al. 2016):

Biological target: CDK2 (human) (UniProt P24941)
Assay: Enzyme Assay
Conditions: concentration not given here

| Compound | inhibition [%] |
| --- | --- |
| CCCCCCC(=O)N1CCC(Nc2nc(N)c(C(=O)c3c(F)cccc3F)s2)CC1 | 59 |
| CSc1ncccc1C(=O)N1CCC(Nc2nc(N)c(C(=O)c3c(F)cccc3F)s2)CC1 | 33 |
| Nc1nc(NC2CCN(C(=O)c3ccccc3COC(=O)c3ccccc3)CC2)sc1C(=O)c1c(F)cccc1F | -9 |
| CSCC(=O)N1CCC(Nc2nc(N)c(C(=O)c3c(F)cccc3F)s2)CC1 | 84 |
| Nc1nc(NC2CCN(C(=O)c3ccnc4ccccc34)CC2)sc1C(=O)c1c(F)cccc1F | 10 |
| Nc1nc(NC2CCN(S(=O)(=O)c3c(F)cccc3F)CC2)sc1C(=O)c1c(F)cccc1F | -8 |
| Nc1nc(NC2CCN(C(=O)C3(c4ccccc4)CCCC3)CC2)sc1C(=O)c1c(F)cccc1F | -13 |
| Nc1nc(NC2CCN(C(=O)c3cccnc3Sc3ccc(Cl)cc3)CC2)sc1C(=O)c1c(F)cccc1F | -73 |
| Nc1nc(NC2CCN(C(=O)CCO)CC2)sc1C(=O)c1c(F)cccc1F | 39 |
| CC(O)(CC(=O)N1CCC(Nc2nc(N)c(C(=O)c3c(F)cccc3F)s2)CC1)C(F)(F)F (stereo not given) | 64 |
| [N-]=[N+]=C1C=C(S(=O)(=O)N2CCC(Nc3nc(N)c(C(=O)c4c(F)cccc4F)s3)CC2)c2ccccc2C1=O | -11 |
| CCOc1cccc(CC(=O)N2CCC(Nc3nc(N)c(C(=O)c4c(F)cccc4F)s3)CC2)c1 | 77 |
| Nc1nc(NC2CCN(C(=O)C(O)c3cc(F)ccc3F)CC2)sc1C(=O)c1c(F)cccc1F (stereo not given) | 57 |
| CCCC/C=C/C(=O)N1CCC(Nc2nc(N)c(C(=O)c3c(F)cccc3F)s2)CC1 | 27 |
| CC(C)(CO)C(=O)N1CCC(Nc2nc(N)c(C(=O)c3c(F)cccc3F)s2)CC1 | 41 |
| CC(=O)OCC(=O)N1CCC(Nc2nc(N)c(C(=O)c3c(F)cccc3F)s2)CC1 | 25 |
| CCOc1ccccc1/C=C/C(=O)N1CCC(Nc2nc(N)c(C(=O)c3c(F)cccc3F)s2)CC1 | 80 |
| COc1ccc(CC(=O)N2CCC(Nc3nc(N)c(C(=O)c4c(F)cccc4F)s3)CC2)cc1OC | 55 |
| Nc1nc(NC2CCN(C(=O)c3nc4ccccc4nc3O)CC2)sc1C(=O)c1c(F)cccc1F | 12 |
| CC(C)(O)C(=O)N1CCC(Nc2nc(N)c(C(=O)c3c(F)cccc3F)s2)CC1 | 50 |
| Nc1nc(NC2CCN(C(=O)C3CCC(=O)CC3)CC2)sc1C(=O)c1c(F)cccc1F | 48 |
| Nc1nc(NC2CCN(C(=O)Oc3ccc(F)cc3)CC2)sc1C(=O)c1c(F)cccc1F | 47 |

| Compound | inhibition [%] |
| --- | --- |
| Nc1nc(NC2CCN(C(=O)Cc3cc(F)cc(F)c3F)CC2)sc1C(=O)c1c(F)cccc1F | 44 |
| Cc1nc(C)c(C(=O)N2CCC(Nc3nc(N)c(C(=O)c4c(F)cccc4F)s3)CC2)s1 | 67 |
| CCCC/C=C/CC(=O)N1CCC(Nc2nc(N)c(C(=O)c3c(F)cccc3F)s2)CC1 | 22 |
| CCC(O)(CC)C(=O)N1CCC(Nc2nc(N)c(C(=O)c3c(F)cccc3F)s2)CC1 | 17 |
| Nc1nc(NC2CCN(C(=O)C3CCOC3)CC2)sc1C(=O)c1c(F)cccc1F (stereo not given) | 81 |
| CCCCC(CC)COC(=O)N1CCC(Nc2nc(N)c(C(=O)c3c(F)cccc3F)s2)CC1 (stereo not given) | -42 |
| CO[C@@](C(=O)N1CCC(Nc2nc(N)c(C(=O)c3c(F)cccc3F)s2)CC1)(c1ccccc1)C(F)(F)F | -6 |
| Nc1nc(NC2CCN(C(=O)/C=C/C=C/c3ccccc3)CC2)sc1C(=O)c1c(F)cccc1F | 58 |
| Nc1nc(NC2CCN(C(=O)COc3cc(Cl)c(Cl)cc3Cl)CC2)sc1C(=O)c1c(F)cccc1F | -10 |
| Nc1nc(NC2CCN(S(=O)(=O)c3ccc(CNC(=O)c4ccc(O)cc4)s3)CC2)sc1C(=O)c1c(F)cccc1F | 55 |
| C/C=C/CCC(=O)N1CCC(Nc2nc(N)c(C(=O)c3c(F)cccc3F)s2)CC1 | 71 |
| COC(=O)CCCC(=O)N1CCC(Nc2nc(N)c(C(=O)c3c(F)cccc3F)s2)CC1 | 45 |
| Nc1nc(NC2CCN(C(=O)c3ccc[n+]([O-])c3)CC2)sc1C(=O)c1c(F)cccc1F | 46 |
| CCC[C@H]1CC[C@H](C(=O)N2CCC(Nc3nc(N)c(C(=O)c4c(F)cccc4F)s3)CC2)CC1 | 42 |
| Nc1nc(NC2CCN(C(=O)c3ccc(F)c(F)c3)CC2)sc1C(=O)c1c(F)cccc1F | 56 |
| Nc1nc(NC2CCN(C(=O)CC3Cc4ccccc4C3)CC2)sc1C(=O)c1c(F)cccc1F | 37 |
| CC(C)C[C@H](O)C(=O)N1CCC(Nc2nc(N)c(C(=O)c3c(F)cccc3F)s2)CC1 | 70 |
| CN(C)c1ccc(N=Nc2ccc(S(=O)(=O)N3CCC(Nc4nc(N)c(C(=O)c5c(F)cccc5F)s4)CC3)cc2)cc1 | -20 |
| CN(C)C(=O)N1CCC(Nc2nc(N)c(C(=O)c3c(F)cccc3F)s2)CC1 | -43 |
| Nc1nc(NC2CCN(C(=O)CCC(=O)c3ccccc3)CC2)sc1C(=O)c1c(F)cccc1F | 5 |
| Nc1nc(NC2CCN(C(=O)c3cccc4ccccc34)CC2)sc1C(=O)c1c(F)cccc1F | 55 |
| Nc1nc(NC2CCN(C(=O)Cc3ccc(O)c(F)c3)CC2)sc1C(=O)c1c(F)cccc1F | 59 |

| Compound | inhibition [%] |
| --- | --- |
| Nc1nc(NC2CCN(C(=O)c3ccc(-n4cccc4)cc3)CC2)sc1C(=O)c1c(F)cccc1F | 69 |
| Nc1nc(NC2CCN(C(=O)c3ccc4c(c3)CCO4)CC2)sc1C(=O)c1c(F)cccc1F | 83 |
| COC(C(=O)N1CCC(Nc2nc(N)c(C(=O)c3c(F)cccc3F)s2)CC1)c1ccccc1 (stereo not given) | 28 |
| C=CCC(C)(C)C(=O)N1CCC(Nc2nc(N)c(C(=O)c3c(F)cccc3F)s2)CC1 | 14 |
| COc1cc(C)ccc1C(=O)N1CCC(Nc2nc(N)c(C(=O)c3c(F)cccc3F)s2)CC1 | 59 |
| CCOC(=O)N1CCC(Nc2nc(N)c(C(=O)c3c(F)cccc3F)s2)CC1 | -13 |
| Cc1ccccc1CCC(=O)N1CCC(Nc2nc(N)c(C(=O)c3c(F)cccc3F)s2)CC1 | 48 |
| Cc1ccc(OCC(=O)N2CCC(Nc3nc(N)c(C(=O)c4c(F)cccc4F)s3)CC2)cc1 | 57 |
| CC[C@@H](C(=O)N1CCC(Nc2nc(N)c(C(=O)c3c(F)cccc3F)s2)CC1)c1ccccc1 | 41 |
| COC(=O)CCCCC(=O)N1CCC(Nc2nc(N)c(C(=O)c3c(F)cccc3F)s2)CC1 | -5 |
| Nc1nc(NC2CCN(C(=O)c3ccc(F)c(Cl)c3)CC2)sc1C(=O)c1c(F)cccc1F | 48 |
| Cc1ccc(CCCC(=O)N2CCC(Nc3nc(N)c(C(=O)c4c(F)cccc4F)s3)CC2)cc1 | 38 |
| CCCCC[C@H]1CC[C@H](C(=O)N2CCC(Nc3nc(N)c(C(=O)c4c(F)cccc4F)s3)CC2)CC1 | 14 |
| CCC(O)C(=O)N1CCC(Nc2nc(N)c(C(=O)c3c(F)cccc3F)s2)CC1 (stereo not given) | 48 |
| CCCCOc1ccc(C(C)(C)CC(C)(C)C)cc1S(=O)(=O)N1CCC(Nc2nc(N)c(C(=O)c3c(F)cccc3F)s2)CC1 | -28 |
| Cc1cc(C(=O)N2CCC(Nc3nc(N)c(C(=O)c4c(F)cccc4F)s3)CC2)nn1C | 40 |
| CC1CCCC(C(=O)N2CCC(Nc3nc(N)c(C(=O)c4c(F)cccc4F)s3)CC2)C1 (stereo not given) | 74 |
| Nc1nc(NC2CCN(C(=O)c3ccc(Cl)cc3F)CC2)sc1C(=O)c1c(F)cccc1F | 68 |
| N#Cc1ccc(NCC(=O)N2CCC(Nc3nc(N)c(C(=O)c4c(F)cccc4F)s3)CC2)cc1 | 22 |
| Nc1nc(NC2CCN(S(=O)(=O)c3cccc([N+](=O)[O-])c3)CC2)sc1C(=O)c1c(F)cccc1F | -23 |
| C=CCC(=O)N1CCC(Nc2nc(N)c(C(=O)c3c(F)cccc3F)s2)CC1 | 15 |
